Experimental data reported in PubChem BioAssay AID330 (DTP/NCI, 2004).
Several values for one entry are separate records, joined by “and”; a condition that tells them apart may be missing. Identical values can stand only once. Inconclusive results and toxic doses are left out. The calls were made as follows: active = survival T/C of 150% or more; inactive = T/C below 125% in these data.

Tested on: P388 leukemia ip, CD2F1 mice, survival T/C
Assay: NCI In Vivo Anticancer Drug Screen. Data for tumor model P388 Leukemia (intraperitoneal) in CD2F1 (CDF1) mice
Conditions: endpoint: median survival time, higher = longer survival
Summary of the method: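 Mice carrying the transplanted tumor received test compound or vehicle. Survival was recorded in each group, and the value is the treated-group measurement divided by that of the vehicle-treated control group.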

[1] = dose: 50.0 mg/kg/injection, schedule: Q01DX005 (ip), vehicle: saline with Tween-80
[2] = dose: 100.0 mg/kg/injection, schedule: Q01DX005 (ip), vehicle: saline with Tween-80
[3] = dose: 200.0 mg/kg/injection, schedule: Q01DX005 (ip), vehicle: saline with Tween-80
[4] = dose: 50.0 mg/kg/injection, schedule: Q01DX005 (ip), vehicle: Klucel (hydroxypropylcellulose) (HPC)
[5] = dose: 100.0 mg/kg/injection, schedule: Q01DX005 (ip), vehicle: Klucel (hydroxypropylcellulose) (HPC)
[6] = dose: 200.0 mg/kg/injection, schedule: Q01DX005 (ip), vehicle: Klucel (hydroxypropylcellulose) (HPC)

Measured: T/C

Cc1ccc2c(c1)-c1[nH]c3ccccc3c1CS2
inactive: dose: 100.0 mg/kg/injection, schedule: Q04DX003 (ip), vehicle: Klucel (hydroxypropylcellulose) (HPC) 104 % of control | dose: 200.0 mg/kg/injection, schedule: Q04DX003 (ip), vehicle: Klucel (hydroxypropylcellulose) (HPC) 115 % of control

Cn1c(=O)nc2n(-c3ccc(Cl)c(Cl)c3)c3ccccc3nc-2c1=O
inactive: dose: 100.0 mg/kg/injection, schedule: Q01DX001 (ip), vehicle: Klucel (hydroxypropylcellulose) (HPC) 107 % of control | dose: 200.0 mg/kg/injection, schedule: Q01DX001 (ip), vehicle: Klucel (hydroxypropylcellulose) (HPC) 98 % of control | dose: 400.0 mg/kg/injection, schedule: Q01DX001 (ip), vehicle: Klucel (hydroxypropylcellulose) (HPC) 94 % of control

C(=N\c1oc(-c2ccccc2)c(-c2ccccc2)c1-c1ccccc1)/c1ccccc1
inactive: [1] 88 % of control | [2] 88 % of control | [3] 95 % of control

O=C(O)C1CSC(c2ccccc2)N1 (stereo not given)
inactive: dose: 12.5 mg/kg/injection, schedule: Q01DX009 (ip), vehicle: saline with Tween-80 100 % of control and 101 % of control | dose: 25.0 mg/kg/injection, schedule: Q01DX009 (ip), vehicle: saline with Tween-80 102 % of control and 103 % of control | dose: 50.0 mg/kg/injection, schedule: Q01DX009 (ip), vehicle: saline with Tween-80 100 % of control | dose: 100.0 mg/kg/injection, schedule: Q01DX009 (ip), vehicle: saline with Tween-80 100 % of control

O=C(O)CNCc1ccc(F)cc1
inactive: dose: 100.0 mg/kg/injection, schedule: Q04DX003 (ip), vehicle: saline 98 % of control | dose: 200.0 mg/kg/injection, schedule: Q04DX003 (ip), vehicle: saline 103 % of control | dose: 400.0 mg/kg/injection, schedule: Q04DX003 (ip), vehicle: saline 102 % of control | dose: 600.0 mg/kg/injection, schedule: Q04DX003 (ip), vehicle: saline 100 % of control

COC(=O)C1(CS(C)=O)NC(=S)NC(=O)C1C#N (stereo not given)
inactive: dose: 60.0 mg/kg/injection, schedule: Q01DX005 (ip), vehicle: saline with Tween-80 106 % of control | dose: 120.0 mg/kg/injection, schedule: Q01DX005 (ip), vehicle: saline with Tween-80 99 % of control | dose: 240.0 mg/kg/injection, schedule: Q01DX005 (ip), vehicle: saline with Tween-80 97 % of control

CCc1nc2c(cnn2C)c(=O)n1C
inactive: [4] 89 % of control | [5] 98 % of control | [6] 90 % of control

CC1=C(O)c2cc3c(cc2C(=O)C1=O)OCO3
inactive: dose: 60.0 mg/kg/injection, schedule: Q01DX005 (ip), vehicle: Klucel (hydroxypropylcellulose) (HPC) 98 % of control | dose: 120.0 mg/kg/injection, schedule: Q01DX005 (ip), vehicle: Klucel (hydroxypropylcellulose) (HPC) 88 % of control | dose: 240.0 mg/kg/injection, schedule: Q01DX005 (ip), vehicle: Klucel (hydroxypropylcellulose) (HPC) 92 % of control

CN(C)CCSc1nc2ccccc2o1
inactive: dose: 60.0 mg/kg/injection, schedule: Q01DX005 (ip), vehicle: saline 105 % of control | dose: 120.0 mg/kg/injection, schedule: Q01DX005 (ip), vehicle: saline 104 % of control

CCCCCCCCCC(=O)Oc1cccc2c1CC(C[Se]c1ccccc1)C(=O)O2 (stereo not given)
inactive: dose: 1.88 mg/kg/injection, schedule: Q01DX005 (ip), vehicle: saline with Tween-80 97 % of control | dose: 3.75 mg/kg/injection, schedule: Q01DX005 (ip), vehicle: saline with Tween-80 101 % of control | dose: 7.5 mg/kg/injection, schedule: Q01DX005 (ip), vehicle: saline with Tween-80 89 % of control and 91 % of control

Cc1csc2nc(-c3ccccc3)cn12
inactive: [1] 98 % of control | [2] 96 % of control | [3] 97 % of control

COC1=C(Br)[C@H](O)[C@](O)(CC#N)C=C1Br
inactive: dose: 6.25 mg/kg/injection, schedule: Q01DX009 (ip), vehicle: saline 121 % of control | dose: 8.75 mg/kg/injection, schedule: Q01DX009 (ip), vehicle: Klucel (hydroxypropylcellulose) (HPC) 119 % of control | dose: 12.5 mg/kg/injection, schedule: Q01DX009 (ip), vehicle: saline 123 % of control | dose: 25.0 mg/kg/injection, schedule: Q01DX009 (ip), vehicle: saline 118 % of control

COC1CC(C)(OC(C)=O)Cc2cc3c(c(OC(C)=O)c21)C(=O)c1c(OC(C)=O)cc2c(c1C3=O)OC1OC2(C)C(OC(C)=O)C(N(C)C)C1OC(C)=O (stereo not given)
inactive: dose: 1.25 mg/kg/injection, schedule: Q01DX009 (ip), vehicle: other 102 % of control | dose: 2.5 mg/kg/injection, schedule: Q01DX009 (ip), vehicle: other 112 % of control and 106 % of control | dose: 5.0 mg/kg/injection, schedule: Q01DX009 (ip), vehicle: other 105 % of control and 101 % of control | dose: 10.0 mg/kg/injection, schedule: Q01DX009 (ip), vehicle: other 114 % of control and 115 % of control | dose: 20.0 mg/kg/injection, schedule: Q01DX009 (ip), vehicle: other 121 % of control

Cc1cc(Cl)ccc1N=Cc1cccs1
inactive: dose: 50.0 mg/kg/injection, schedule: Q01DX009 (ip), vehicle: saline 90 % of control | dose: 100.0 mg/kg/injection, schedule: Q01DX009 (ip), vehicle: saline 90 % of control | dose: 200.0 mg/kg/injection, schedule: Q01DX009 (ip), vehicle: saline 89 % of control

CCCCCCCCCCCCCCCCONc1ccnc(=O)[nH]1
inactive: dose: 37.5 mg/kg/injection, schedule: Q01DX001 (ip), vehicle: Klucel (hydroxypropylcellulose) (HPC) 91 % of control | dose: 75.0 mg/kg/injection, schedule: Q01DX001 (ip), vehicle: Klucel (hydroxypropylcellulose) (HPC) 91 % of control

CCOC(=O)C1Sc2c(c(=O)n(C)c3ccccc23)C1=O (stereo not given)
inactive: [4] 101 % of control and 107 % of control and 110 % of control | [5] 99 % of control and 105 % of control and 108 % of control | [6] 108 % of control and 112 % of control and 123 % of control
